Assay: Unspecified test of effectiveness of AII fragments

Row | Substance | effectiveness
1 | Tyr-Ile-His-Pro-Phe (YIHPF; printed: Tyr-Ile-His-Pro-Phe) [AII(4-8)] | not to be effective
2 | His-Pro-Phe [AII(6-8)] | not to be effective
